# Assay results taken from US20230248845A1, “COMBINATION OF AN ANTIBODY-DRUG CONJUGATE AND AN ANTIBODY-SAPONIN CONJUGATE” (SAPREME TECHNOLOGIES B.V., priority 2020, published 2023).
# Read-outs that look alike come from different tables or passages of the source.
# Key:
# Test in all cases: Cell viability assay (MTS), targeted protein toxin mediated cell killing
# Assay type in all cases: cell-based, human
# SK-BR-3 cells (HER2^++) = system: SK-BR-3 cells (HER2^++)
# Experimental: (§1) After treatment the cells were incubated for 72 hr at 37° C. before the cell viability was determined by a MTS-assay, performed according to the manufacturer's instruction (CellTiter 96® AQueous One Solution Cell Proliferation Assay, Promega). Briefly, the MTS solution was diluted 20× in DMEM without phenol red (PAN-Biotech GmbH) supplemented with 10% FBS. The cells were washed once with 200 μL/PBS well, after which 100 μL diluted MTS solution was added/well. The plate was incubated for approximately 20-30 minutes at 37° C. Subsequently, the OD at 492 nm was measured on a Thermo Scientific Multiskan FC plate reader (Thermo Scientific). For quantification the background signal of ‘medium only’ wells was subtracted from all other wells, before the cell viability percentage of treated/untreated cells was calculated, by dividing the background corrected signal of treated wells over the background corrected signal of the untreated wells (×100).
# A2058 cells (EGFR^−) = details: FIG. 8B
# Experimental: as §1
# A431 cells (EGFR^++) = system: A431 cells (EGFR^++)
# Experimental: as §1
# [1] = system: MDA-MB-468 cells (HER2^−); details: FIG. 9B
# Experimental: as §1
# [2] = substance alone, equivalent concentrations, FIG. 2A
# [3] = SO1861 titrated on 10 pM CD71mab-saporin
# [4] = SO1861 titrated on 10 pM Pertuzumab-saporin
# [5] = SO1861 titrated on 10 pM cetuximab-saporin
# [6] = SO1861 titrated on 10 pM matuzumab-dianthin
# [7] = SO1861 titrated on 50 pM Pertuzumab-saporin
# [8] = SO1861 titrated on 50 pM trastuzumab-saporin
molecule,measurement,setting,value
"pertuzumab-(Cys-L-SO1861)^4: SO1861-EMCH conjugated via cysteine residues (Cys) to pertuzumab, with a DAR 4",cell killing activity,SK-BR-3 cells (HER2^++); [2],could not induce any cell killing activity
same,IC50,"SK-BR-3 cells (HER2^++); substance titrated on fixed 50 pM trastuzumab-saporin, FIG. 2A, read-out: IC50 cell killing",0.5 nM
same,cell killing activity at higher concentrations,"SK-BR-3 cells (HER2^++); titrated on fixed 50 pM pertuzumab-dianthin, higher concentrations",cell killing activity was reduced
pertuzumab: monoclonal antibody binding human HER2,cell killing activity,"SK-BR-3 cells (HER2^++); equivalent concentrations + 50 pM trastuzumab-saporin, FIG. 2A",could not induce any cell killing activity
same,cell killing activity,SK-BR-3 cells (HER2^++); [2],could not induce any cell killing activity
CC(=O)O[C@H]1[C@H](O[C@@H]2OC[C@@H](O)[C@H](O)[C@H]2O)[C@@H](O)[C@H](O[C@@H]2[C@H](O)[C@@H](O[C@@H]3O[C@@H](C)[C@H](O[C@@H]4OC[C@@H](O)[C@H](O[C@@H]5O[C@H](CO)[C@@H](O)[C@H](O)[C@H]5O)[C@H]4O)[C@@H](O)[C@H]3O)[C@H](OC(=O)[C@]34CCC(C)(C)C[C@H]3C3=CC[C@@H]5[C@@]6(C)CC[C@H](O[C@@H]7O[C@H](C(=O)O)[C@@H](O)[C@H](O[C@@H]8OC[C@@H](O)[C@H](O)[C@H]8O)[C@H]7O[C@@H]7O[C@H](CO)[C@H](O)[C@H](O)[C@H]7O)[C@@](C)(C=O)[C@@H]6CC[C@@]5(C)[C@]3(C)C[C@H]4O)O[C@@H]2C)O[C@@H]1C [SO1861],IC50,A2058 cells (EGFR^−); [3],200 nM
same,IC50,A2058 cells (EGFR^−); [4],200 nM
same,cell killing activity,A2058 cells (EGFR^−); [5],not active
same,cell killing activity,A2058 cells (EGFR^−); [6],not active
same,IC50,A2058 cells (EGFR^−); [7],200 nM
same,IC50,A2058 cells (EGFR^−); [8],200 nM
same,IC50,"A431 cells (EGFR^++); SO1861 titrated on 10 pM CD71-saporin, FIG. 8A, read-out: SO1861 IC50 cell killing",200 nM
same,IC50,"A431 cells (EGFR^++); SO1861 titrated on 10 pM cetuximab-saporin, FIG. 8A, read-out: SO1861 IC50 cell killing",200 nM
same,IC50,"A431 cells (EGFR^++); SO1861 titrated on 10 pM matuzumab-dianthin, FIG. 8A, read-out: SO1861 IC50 cell killing",200 nM
same,IC50,"A431 cells (EGFR^++); SO1861 titrated on 10 pM pertuzumab-saporin, FIG. 8A, read-out: SO1861 IC50 cell killing",300 nM
same,IC50,"A431 cells (EGFR^++); SO1861 titrated on 50 pM pertuzumab-saporin, FIG. 8A, read-out: SO1861 IC50 cell killing",200 nM
same,IC50,"A431 cells (EGFR^++); SO1861 titrated on 50 pM trastuzumab, FIG. 8A, read-out: SO1861 IC50 cell killing",250 nM
same,IC50,"SK-BR-3 cells (HER2^++); SO1861 titrated on 10 pM CD71-saporin, FIG. 9A, read-out: SO1861 IC50 cell killing",200 nM
same,IC50,"SK-BR-3 cells (HER2^++); SO1861 titrated on 10 pM Pertuzumab-saporin, FIG. 9A, read-out: SO1861 IC50 cell killing",200 nM
same,IC50,"SK-BR-3 cells (HER2^++); SO1861 titrated on 10 pM cetuximab-saporin, FIG. 9A, read-out: SO1861 IC50 cell killing",200 nM
same,IC50,"SK-BR-3 cells (HER2^++); SO1861 titrated on 10 pM matuzumab-dianthin, FIG. 9A, read-out: SO1861 IC50 cell killing",200 nM
same,IC50,"SK-BR-3 cells (HER2^++); SO1861 titrated on 50 pM Pertuzumab-saporin, FIG. 9A, read-out: SO1861 IC50 cell killing",200 nM
same,IC50,"SK-BR-3 cells (HER2^++); SO1861 titrated on 50 pM trastuzumab-saporin, FIG. 9A, read-out: SO1861 IC50 cell killing",200 nM
same,IC50,[1]; [3],200 nM
same,IC50,[1]; [4],> 1000 nM
same,IC50,[1]; [5],200 nM
same,IC50,[1]; [6],200 nM
same,IC50,[1]; [7],> 1000 nM
same,IC50,[1]; [8],> 1000 nM
"matuzumab-SO1861: SO1861-EMCH conjugated via cysteine residues (Cys) to matuzumab, with a DAR 3,3",IC50,"A431 cells (EGFR^++); substance titrated on fixed 10 pM EGFdianthin, FIG. 6A, read-out: IC50 cell killing",2 nM
same,IC50,"A431 cells (EGFR^++); substance titrated on fixed 10 pM cetuximab-saporin, FIG. 6A, read-out: IC50 cell killing",2 nM
